Tested on: Molm 13-RES-luc cells that expressed FLT3-ITD/D835Y
Assay: MTT assay in tandutinib-resistant Molm 13-RES-luc cells
Type: cell-based
Details: Homo sapiens, tandutinib resistant Molm 13 cells, mean of 3 studies with 6 replicates each (n=18), read-out: IC50 pFLT3 (text: cell viability, MTT assay)

**Q.** With `CC1(COc2ccc3c(c2)ncn3-c2ccc3cccc(N4CCC(N)CC4)c3n2)COC1` [Crenolanib, reference compound] as the molecule, how does the IC50 read?
**A.** 3.3 nM
